Measured values: the supplement of paper PMC10307832

Compound: Cc1cnc(CNC(=O)c2c(=O)c3ccc(N4CCCN(C)CC4)nc3n3c2sc2ccccc23)cn1 [CX-5461]
Assay: relative viability (nuclei count vs DMSO), 5 days (fraction); higher = more cells survive
Conditions: 0.01 µM
Summary of the method: (§1)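 Nuclei counted with MetaXpress define viability as the ratio of treated to vehicle wells, given as a median across plates. The lung cancer cell lines were in 1536-well plates, pinned with five √10-spaced library-drug doses and imaged at 4× after 5 days and Hoechst staining. Plates passed with control CV below 25% and at least one doubling.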

First: HCC-366
Second: NCI-H1666
The relative viability of the first is higher: 1.11 for the first, 0.985 for the second.

Compared with NCI-H596, NCI-H1395 is lower in relative viability: 0.989 for the first, 0.978 for the second.

Compared with NCI-H2087, LK-2 is lower in relative viability: 1.26 for the first, 0.89 for the second.

Compared with H3255, COR-L23 is higher in relative viability: 1.02 for the first, 1.03 for the second.

First: COR-L 105
Second: IA-LM
The relative viability of the first is lower: 0.933 for the first, 0.987 for the second.

Compared with LOU-NH91, NCI-H358 is lower in relative viability: 1.07 for the first, 0.971 for the second.

Going from NCI-H2405 to HOP-62, the relative viability falls from 1.03 to 1.02.

First: HCC-44
Second: A549
The relative viability of the first is lower: 0.956 for the first, 0.969 for the second.

First: LU99A
Second: BEN
The relative viability of the first is lower: 0.974 for the first, 1.04 for the second.

HARA and HCC-78 are the same in relative viability: 1.01 for the first, 1.01 for the second.

First: NCI-H322M
Second: LCLC-97TM1
The relative viability of the first is higher: 0.923 for the first, 0.881 for the second.

Compared with NCI-H2009, A-427 is higher in relative viability: 1.02 for the first, 1.06 for the second.

Compared with NCI-H661, NCI-H1734 is lower in relative viability: 1.04 for the first, 1.02 for the second.

First: NCI-H460
Second: NCI-H2347
The relative viability of the first is higher: 1.05 for the first, 1.02 for the second.

First: SW 1573
Second: NCI-H1793
The relative viability of the first is lower: 0.94 for the first, 0.989 for the second.

Same assay, conditions: 0.03162 µM

First: NCI-H2085
Second: Calu-6
The relative viability of the first is lower: 1.01 for the first, 1.07 for the second.

Going from HCC-366 to NCI-H1666, the relative viability falls from 1.02 to 0.992.

Compared with NCI-H596, NCI-H1395 is lower in relative viability: 1.15 for the first, 0.853 for the second.

First: NCI-H2087
Second: LK-2
The relative viability of the first is higher: 1.16 for the first, 1.07 for the second.

First: H3255
Second: COR-L23
The relative viability of the first is lower: 0.94 for the first, 1.07 for the second.

Going from COR-L 105 to IA-LM, the relative viability rises from 0.894 to 0.933.

Compared with LOU-NH91, NCI-H358 is higher in relative viability: 1.01 for the first, 1.02 for the second.

Compared with NCI-H2405, HOP-62 is higher in relative viability: 0.995 for the first, 1.05 for the second.

First: HCC-44
Second: A549
The relative viability of the first is higher: 0.998 for the first, 0.96 for the second.

Going from LU99A to BEN, the relative viability rises from 0.95 to 1.

Going from HARA to HCC-78, the relative viability falls from 1.03 to 0.879.

First: NCI-H322M
Second: LCLC-97TM1
The relative viability of the first is lower: 0.987 for the first, 1.14 for the second.

Going from NCI-H2009 to A-427, the relative viability rises from 1.04 to 1.1.

Compared with NCI-H661, NCI-H1734 is higher in relative viability: 0.978 for the first, 1.05 for the second.

First: NCI-H460
Second: NCI-H2347
The relative viability of the first is lower: 0.97 for the first, 1.04 for the second.

First: SW 1573
Second: NCI-H1793
The relative viability of the first is lower: 0.978 for the first, 1.1 for the second.

Same assay, conditions: 0.1 µM

First: NCI-H2085
Second: Calu-6
The relative viability of the first is lower: 0.992 for the first, 1.03 for the second.

First: HCC-366
Second: NCI-H1666
The relative viability of the first is higher: 1 for the first, 0.949 for the second.

Going from NCI-H596 to NCI-H1395, the relative viability falls from 0.968 to 0.816.

Compared with NCI-H2087, LK-2 is higher in relative viability: 1.02 for the first, 1.13 for the second.

First: H3255
Second: COR-L23
The relative viability of the first is higher: 0.921 for the first, 0.758 for the second.

Compared with COR-L 105, IA-LM is higher in relative viability: 0.82 for the first, 1 for the second.

Compared with LOU-NH91, NCI-H358 is lower in relative viability: 0.997 for the first, 0.872 for the second.

Compared with NCI-H2405, HOP-62 is higher in relative viability: 1.01 for the first, 1.08 for the second.

Compared with HCC-44, A549 is lower in relative viability: 0.964 for the first, 0.748 for the second.

Going from LU99A to BEN, the relative viability falls from 1.23 to 1.06.

Going from HARA to HCC-78, the relative viability falls from 0.957 to 0.941.

First: NCI-H322M
Second: LCLC-97TM1
The relative viability of the first is higher: 1.03 for the first, 0.992 for the second.

Going from NCI-H2009 to A-427, the relative viability rises from 0.879 to 1.06.

Compared with NCI-H661, NCI-H1734 is lower in relative viability: 1.02 for the first, 1 for the second.

First: NCI-H460
Second: NCI-H2347
The relative viability of the first is lower: 0.725 for the first, 1.04 for the second.

First: SW 1573
Second: NCI-H1793
The relative viability of the first is lower: 0.689 for the first, 0.875 for the second.

Same assay, conditions: 0.3162 µM

First: NCI-H2085
Second: Calu-6
The relative viability of the first is higher: 1.02 for the first, 0.987 for the second.

Going from HCC-366 to NCI-H1666, the relative viability falls from 1.02 to 0.904.

First: NCI-H596
Second: NCI-H1395
The relative viability of the first is higher: 1.09 for the first, 0.475 for the second.

First: NCI-H2087
Second: H3255
The relative viability of the first is higher: 1.01 for the first, 0.609 for the second.

Compared with COR-L23, COR-L 105 is lower in relative viability: 0.973 for the first, 0.607 for the second.

Compared with IA-LM, LOU-NH91 is lower in relative viability: 1.03 for the first, 0.574 for the second.

Going from NCI-H358 to NCI-H2405, the relative viability rises from 0.871 to 0.897.

Compared with HOP-62, HCC-44 is higher in relative viability: 0.893 for the first, 0.98 for the second.

Going from A549 to LU99A, the relative viability falls from 0.811 to 0.603.

First: BEN
Second: HARA
The relative viability of the first is higher: 0.979 for the first, 0.728 for the second.

First: HCC-78
Second: NCI-H322M
The relative viability of the first is higher: 0.907 for the first, 0.491 for the second.

Compared with NCI-H2009, NCI-H661 is lower in relative viability: 1.02 for the first, 0.626 for the second.

Compared with NCI-H1734, NCI-H460 is higher in relative viability: 0.694 for the first, 0.93 for the second.

Going from NCI-H2347 to SW 1573, the relative viability falls from 0.937 to 0.656.

NCI-H1793 was tested, and the relative viability was 0.997.

Same assay, conditions: 1 µM

First: NCI-H2085
Second: Calu-6
The relative viability of the first is higher: 0.869 for the first, 0.385 for the second.

Compared with HCC-366, NCI-H1666 is higher in relative viability: 0.322 for the first, 0.808 for the second.

First: NCI-H596
Second: NCI-H1395
The relative viability of the first is higher: 0.683 for the first, 0.588 for the second.

Going from NCI-H2087 to LK-2, the relative viability rises from 0.717 to 0.783.

Compared with H3255, COR-L23 is lower in relative viability: 0.909 for the first, 0.583 for the second.

First: COR-L 105
Second: IA-LM
The relative viability of the first is lower: 0.508 for the first, 0.561 for the second.

First: LOU-NH91
Second: NCI-H358
The relative viability of the first is higher: 0.845 for the first, 0.633 for the second.

First: NCI-H2405
Second: HOP-62
The relative viability of the first is lower: 0.864 for the first, 0.899 for the second.

Going from HCC-44 to A549, the relative viability falls from 0.839 to 0.193.

First: LU99A
Second: BEN
The relative viability of the first is lower: 0.356 for the first, 0.937 for the second.

Going from HARA to HCC-78, the relative viability rises from 0.713 to 0.902.

First: NCI-H322M
Second: LCLC-97TM1
The relative viability of the first is lower: 0.731 for the first, 0.746 for the second.

Compared with NCI-H2009, A-427 is lower in relative viability: 0.75 for the first, 0.748 for the second.

Compared with NCI-H661, NCI-H1734 is lower in relative viability: 0.835 for the first, 0.579 for the second.

Compared with NCI-H460, NCI-H2347 is higher in relative viability: 0.128 for the first, 0.908 for the second.

Compared with SW 1573, NCI-H1793 is higher in relative viability: 0.33 for the first, 0.942 for the second.

Compound: O=C(Nc1cc(C(F)(F)F)cc(C(F)(F)F)c1)c1cc(Cl)ccc1O [IMD-0354]
Assay: as above
Conditions: 0.04 µM
Summary of the method: as §1

First: NCI-H2085
Second: Calu-6
The relative viability of the first is higher: 1.06 for the first, 0.947 for the second.
